Data reported in the supplement of paper PMC10307832.

How the values were obtained:
Experiment in all cases: relative viability (nuclei count vs DMSO), 5 days (fraction); higher = more cells survive
[1] = compound: C1CNCCC1C2=CC(=NN2)C3=CC=NC=C3 + NC(=O)Nc1cc(-c2cccc(F)c2)sc1C(=O)N[C@H]1CCCNC1 [AZD7762] (partner 0.2 µM)
How it was run: (§1)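 Lung cancer cell lines, seeded in 1536-well plates, were treated the following day by pin tool with a single drug or with five library-drug doses (not always all listed) in √10 steps on top of a fixed anchor-drug dose. Cells were fixed and nuclei stained in one step after 5 days, and nuclei were counted. Relative viability is the nuclei count for treated wells divided by that for vehicle wells, reported as medians of duplicate plates.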

[2] = compound: C1CNCCC1C2=CC(=NN2)C3=CC=NC=C3 + CCNC(=O)c1noc(-c2cc(C(C)C)c(O)cc2O)c1-c1ccc(CN2CCOCC2)cc1 [Luminespib] (partner 0.01 µM)
How it was run: as §1

[3] = compound: C[C@@H](N)c1ccc(C(=O)Nc2ccnc3[nH]ccc23)cc1 + CS(=O)(=O)CCNCc1ccc(-c2ccc3ncnc(Nc4ccc(OCc5cccc(F)c5)c(Cl)c4)c3c2)o1 [Lapatinib] (partner 2 µM)
How it was run: as §1

[4] = compound: C1CNCCC1C2=CC(=NN2)C3=CC=NC=C3 + C[C@@H](Oc1cc(-c2cnn(C3CCNCC3)c2)cnc1N)c1c(Cl)ccc(F)c1Cl [Crizotinib] (partner 1 µM)
How it was run: as §1

## PC-14
[1]; first compound 0.08 µM
  relative viability: 0.363
[1]; first compound 0.8 µM
  relative viability: 0.383
[1]; first compound 2.53 µM
  relative viability: 0.237
[1]; first compound 8 µM
  relative viability: 0.348
[2]; first compound 0.08 µM
  relative viability: 0.151
[2]; first compound 0.8 µM
  relative viability: 0.162
[2]; first compound 2.53 µM
  relative viability: 0.18
[2]; first compound 8 µM
  relative viability: 0.151
[3]; first compound 0.04 µM
  relative viability: 0.292
[3]; first compound 0.1265 µM
  relative viability: 0.344
[3]; first compound 0.4 µM
  relative viability: 0.295
[3]; first compound 1.265 µM
  relative viability: 0.271
[3]; first compound 4 µM
  relative viability: 0.329
[4]; first compound 0.08 µM
  relative viability: 0.917
[4]; first compound 0.8 µM
  relative viability: 0.874
[4]; first compound 2.53 µM
  relative viability: 1.04
[4]; first compound 8 µM
  relative viability: 0.835

## NCI-H727
[1]; first compound 0.08 µM
  relative viability: 0.658
[1]; first compound 0.8 µM
  relative viability: 0.474
[1]; first compound 2.53 µM
  relative viability: 0.72
[1]; first compound 8 µM
  relative viability: 0.773
[2]; first compound 0.08 µM
  relative viability: 0.27
[2]; first compound 0.8 µM
  relative viability: 0.693
[2]; first compound 2.53 µM
  relative viability: 0.453
[2]; first compound 8 µM
  relative viability: 0.36
[3]; first compound 0.04 µM
  relative viability: 0.863
[3]; first compound 0.1265 µM
  relative viability: 0.957
[3]; first compound 0.4 µM
  relative viability: 1.02
[3]; first compound 1.265 µM
  relative viability: 0.513
[3]; first compound 4 µM
  relative viability: 0.989
[4]; first compound 0.08 µM
  relative viability: 0.718
[4]; first compound 0.8 µM
  relative viability: 1.1
[4]; first compound 2.53 µM
  relative viability: 1.05
[4]; first compound 8 µM
  relative viability: 0.776

## NCI-H1792
[1]; first compound 0.08 µM
  relative viability: 0.616
[1]; first compound 0.8 µM
  relative viability: 0.675
[1]; first compound 2.53 µM
  relative viability: 0.632
[1]; first compound 8 µM
  relative viability: 0.717
[2]; first compound 0.08 µM
  relative viability: 0.43
[2]; first compound 0.8 µM
  relative viability: 0.414
[2]; first compound 2.53 µM
  relative viability: 0.636
[2]; first compound 8 µM
  relative viability: 0.483
[3]; first compound 0.04 µM
  relative viability: 0.923
[3]; first compound 0.1265 µM
  relative viability: 0.922
[3]; first compound 0.4 µM
  relative viability: 0.966
[3]; first compound 1.265 µM
  relative viability: 0.607
[3]; first compound 4 µM
  relative viability: 0.783
[4]; first compound 0.08 µM
  relative viability: 0.987
[4]; first compound 0.8 µM
  relative viability: 0.983
[4]; first compound 2.53 µM
  relative viability: 1.06
[4]; first compound 8 µM
  relative viability: 0.959

## HOP-62
[1]; first compound 0.08 µM
  relative viability: 0.67
[1]; first compound 0.8 µM
  relative viability: 1
[1]; first compound 2.53 µM
  relative viability: 0.751
[1]; first compound 8 µM
  relative viability: 0.462
[2]; first compound 0.08 µM
  relative viability: 0.999
[2]; first compound 0.8 µM
  relative viability: 1.06
[2]; first compound 2.53 µM
  relative viability: 0.837
[2]; first compound 8 µM
  relative viability: 0.847
[3]; first compound 0.04 µM
  relative viability: 0.929
[3]; first compound 0.1265 µM
  relative viability: 0.784
[3]; first compound 0.4 µM
  relative viability: 1.02
[3]; first compound 1.265 µM
  relative viability: 0.512
[3]; first compound 4 µM
  relative viability: 0.982
[4]; first compound 0.08 µM
  relative viability: 0.682
[4]; first compound 0.8 µM
  relative viability: 1.11
[4]; first compound 2.53 µM
  relative viability: 0.942
[4]; first compound 8 µM
  relative viability: 0.978

## NCI-H1915
[1]; first compound 0.08 µM
  relative viability: 0.704
[1]; first compound 0.8 µM
  relative viability: 0.745
[1]; first compound 2.53 µM
  relative viability: 0.722
[1]; first compound 8 µM
  relative viability: 0.704
[2]; first compound 0.08 µM
  relative viability: 0.746
[2]; first compound 0.8 µM
  relative viability: 0.876
[2]; first compound 2.53 µM
  relative viability: 0.791
[2]; first compound 8 µM
  relative viability: 0.734
[3]; first compound 0.04 µM
  relative viability: 0.908
[3]; first compound 0.1265 µM
  relative viability: 0.972
[3]; first compound 0.4 µM
  relative viability: 0.966
[3]; first compound 4 µM
  relative viability: 0.848
[4]; first compound 0.08 µM
  relative viability: 0.88
[4]; first compound 0.8 µM
  relative viability: 0.906
[4]; first compound 2.53 µM
  relative viability: 0.855
[4]; first compound 8 µM
  relative viability: 0.909

## BEN
[1]; first compound 0.08 µM
  relative viability: 0.546
[1]; first compound 0.8 µM
  relative viability: 0.634
[1]; first compound 2.53 µM
  relative viability: 0.675
[1]; first compound 8 µM
  relative viability: 0.772
[2]; first compound 0.08 µM
  relative viability: 0.215
[2]; first compound 0.8 µM
  relative viability: 0.282
[2]; first compound 2.53 µM
  relative viability: 0.341
[2]; first compound 8 µM
  relative viability: 0.344
[3]; first compound 0.04 µM
  relative viability: 0.706
[3]; first compound 0.1265 µM
  relative viability: 0.675
[3]; first compound 0.4 µM
  relative viability: 0.99
[3]; first compound 1.265 µM
  relative viability: 0.781
[3]; first compound 4 µM
  relative viability: 0.438
[4]; first compound 0.08 µM
  relative viability: 0.644
[4]; first compound 0.8 µM
  relative viability: 0.87
[4]; first compound 2.53 µM
  relative viability: 0.878
[4]; first compound 8 µM
  relative viability: 0.823

## NCI-H1437
[1]; first compound 0.08 µM
  relative viability: 1.09
[1]; first compound 0.8 µM
  relative viability: 1.09
[1]; first compound 2.53 µM
  relative viability: 1.17
[1]; first compound 8 µM
  relative viability: 1.09
[2]; first compound 0.08 µM
  relative viability: 1.1
[2]; first compound 0.8 µM
  relative viability: 1.16
[2]; first compound 2.53 µM
  relative viability: 1.09
[2]; first compound 8 µM
  relative viability: 1.14
[3]; first compound 0.04 µM
  relative viability: 0.842
[3]; first compound 0.1265 µM
  relative viability: 0.782
[3]; first compound 0.4 µM
  relative viability: 0.825
[3]; first compound 1.265 µM
  relative viability: 0.772
[3]; first compound 4 µM
  relative viability: 0.737
[4]; first compound 0.08 µM
  relative viability: 0.866
[4]; first compound 0.8 µM
  relative viability: 0.967
[4]; first compound 2.53 µM
  relative viability: 0.929
[4]; first compound 8 µM
  relative viability: 0.883
